Assay results published in patent US7879858B2, “Substituted tetrahydropyrrolopyrazine compounds and the use thereof in pharmaceutical compositions” (Gruenenthal GmbH, priority 2006, dated 2011).

What was measured:
[1] = tested on: NA reuptake; assay: Inhibition of NA (noradrenaline) uptake in rat hypothalamus synaptosomes; assay type: biochemical; details: synaptosomes from hypothalamus of male rat brains
Experimental: (§1) Biological Data Inhibition of NA and 5HT Uptake
(§2) In order to be able to carry out these in vitro studies, synaptosomes are freshly isolated from areas of the rat brain. In each case a so-called “P2” fraction prepared in accordance with the instructions of Gray and Whittaker (E. G. Gray and V. P. Whittaker (1962) J. Anat. 76, 79-88) is prepared. For the NA uptake, these vesicular particles are isolated from the hypothalamus of male rat brains. A detailed description of the method can be found in the literature (M. Ch. Frink, H.-H. Hennies, W. Englberger, M. Haurand and B. Wilffert (1996) Arzneim.-Forsch./Drug Res. 46 (III), 11, 1029-1036).

[2] = target: T1, Serotonin reuptake (Rattus norvegicus, UniProt P31652); assay: Inhibition of 5HT (serotonin) uptake in rat brain synaptosomes; assay type: biochemical; details: synaptosomes from rat brain; for inhibition at 10 µM: 10 μmol
T1 construct: synaptosomes are freshly isolated from areas of the rat brain; from tissue; host or cells: rat brain synaptosomes (P2 fraction)
Experimental: as §1, §2

T1 sequence (P31652 whole entry): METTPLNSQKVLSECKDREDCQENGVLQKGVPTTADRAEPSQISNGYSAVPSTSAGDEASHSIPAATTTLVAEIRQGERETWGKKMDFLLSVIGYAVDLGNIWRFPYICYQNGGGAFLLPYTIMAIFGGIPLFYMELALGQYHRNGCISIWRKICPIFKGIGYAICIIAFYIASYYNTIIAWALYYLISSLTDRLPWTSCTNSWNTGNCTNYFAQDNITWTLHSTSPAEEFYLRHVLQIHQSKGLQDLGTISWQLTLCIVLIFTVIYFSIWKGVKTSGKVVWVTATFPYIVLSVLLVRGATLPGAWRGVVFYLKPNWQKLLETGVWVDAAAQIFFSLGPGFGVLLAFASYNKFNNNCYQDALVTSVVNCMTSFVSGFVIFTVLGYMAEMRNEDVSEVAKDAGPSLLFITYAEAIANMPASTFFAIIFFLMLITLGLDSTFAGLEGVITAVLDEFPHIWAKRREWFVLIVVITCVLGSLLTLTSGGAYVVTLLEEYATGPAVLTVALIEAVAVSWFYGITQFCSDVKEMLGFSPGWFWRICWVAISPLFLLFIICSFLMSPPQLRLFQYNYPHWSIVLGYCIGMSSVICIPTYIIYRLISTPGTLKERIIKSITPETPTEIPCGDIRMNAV

SMILES	NA reuptake % inhibition [10 μmol] [1] [%]	inhibition at 10 µM [2] [%]	Serotonin reuptake % inhibition [10 μmol] [2] [%]
O=C(c1ccc2c(c1)OCO2)N1CCn2cccc2C1c1ccccc1F (stereo not drawn) [Example 9, benzo[d][1,3]dioxol-5-yl(1-(2-fluorophenyl)-3,4-dihydropyrrolo[1,2-a]pyrazin-2(1H)-yl)methanone]	27	30	–
Cc1ccsc1C(=O)N1CCn2cccc2C1c1ccccc1 (stereo not drawn) [Example 70, (3-methylthiophen-2-yl)(1-phenyl-3,4-dihydropyrrolo[1,2-a]pyrazin-2(1H)-yl)methanone]	11	38	–
COc1ccccc1C(=O)N1CCn2cccc2C1c1ccc(Cl)cc1 (stereo not drawn) [Example 29, (1-(4-chlorophenyl)-3,4-dihydropyrrolo[1,2-a]pyrazin-2(1H)-yl)(2-methoxyphenyl)methanone]	21	34	–
O=C(c1cccc(F)c1)N1CCn2cccc2C1c1ccccc1F (stereo not drawn) [Example 7, (3-fluoro-phenyl)-[1-(2-fluoro-phenyl)-3,4-dihydro-1H-pyrrolo[1,2-a]pyrazin-2-yl]-methanone]	36	54	–
O=C(c1ccco1)N1CCn2cccc2C1c1ccc(Cl)c(Cl)c1 (stereo not drawn) [Example 68, [1-(3,4-dichloro-phenyl)-3,4-dihydro-1H-pyrrolo[1,2-a]pyrazin-2-yl]-furan-2-yl-methanone]	48	57	–
O=C(CCCCc1ccccc1)N1CCn2cccc2C1c1cccs1 (stereo not drawn) [Example 77, 5-phenyl-1-(1-(thiophen-2-yl)-3,4-dihydropyrrolo[1,2-a]pyrazin-2(1H)-yl)pentan-1-one]	10	25	–
O=C(c1ccc(F)cc1)N1CCn2cccc2C1c1ccc(F)cc1F (stereo not drawn) [Example 19, (1-(2,4-difluorophenyl)-3,4-dihydropyrrolo[1,2-a]pyrazin-2(1H)-yl)(4-fluorophenyl)methanone]	28	35	–
O=C(C1CCCC1)N1CCn2cccc2C1c1ccccc1 (stereo not drawn) [Example 24, cyclopentyl(1-phenyl-3,4-dihydropyrrolo[1,2-a]pyrazin-2(1H)-yl)methanone]	44	32	–
O=C(c1ccccc1F)N1CCn2cccc2C1c1ccccc1F (stereo not drawn) [Example 47, (2-fluorophenyl)(1-(2-fluorophenyl)-3,4-dihydropyrrolo[1,2-a]pyrazin-2(1H)-yl)methanone]	12	18	–
O=C(C1CCCC1)N1CCn2cccc2C1c1cccc(Cl)c1 (stereo not drawn) [Example 42, (1-(3-chlorophenyl)-3,4-dihydropyrrolo[1,2-a]pyrazin-2(1H)-yl)(cyclopentyl)methanone]	22	30	–
O=C(c1cccs1)N1CCn2cccc2C1c1cccc(Cl)c1 (stereo not drawn) [Example 45, [1-(3-chloro-phenyl)-3,4-dihydro-1H-pyrrolo[1,2-a]pyrazin-2-yl]-thiophen-2-yl-methanone]	43	53	–
O=C(c1ccco1)N1CCn2cccc2C1c1ccccc1F (stereo not drawn) [Example 5, (1-(2-fluorophenyl)-3,4-dihydropyrrolo[1,2-a]pyrazin-2(1H)-yl)(furan-2-yl)methanone]	34	11	–
O=C(c1ccc(F)cc1)N1CCn2cccc2C1c1cccs1 (stereo not drawn) [Example 60, (4-fluorophenyl)(1-(thiophen-2-yl)-3,4-dihydropyrrolo[1,2-a]pyrazin-2(1H)-yl)methanone]	11	37	–
O=C(c1ccc(F)cc1)N1CCn2cccc2C1c1cccc(Cl)c1 (stereo not drawn) [Example 46, [1-(3-chloro-phenyl)-3,4-dihydro-1H-pyrrolo[1,2-a]pyrazin-2-yl]-(4-fluoro-phenyl)-methanone]	50	52	–
COc1ccccc1C(=O)N1CCn2cccc2C1c1cccc(Cl)c1 (stereo not drawn) [Example 39, (1-(3-chlorophenyl)-3,4-dihydropyrrolo[1,2-a]pyrazin-2-(1H)-yl)(2-methoxyphenyl)methanone]	43	–	46
Cc1cccc(C2c3cccn3CCN2C(=O)CC(C)C)c1 (stereo not drawn) [Example 15, 3-methyl-1-(1-m-tolyl-3,4-dihydropyrrolo[1,2-a]pyrazin-2(1H)-yl)butan-1-one]	19	28	–
Cc1ccccc1C(=O)N1CCn2cccc2C1c1cccc(Cl)c1 (stereo not drawn) [Example 41, (1-(3-chlorophenyl)-3,4-dihydropyrrolo[1,2-a]pyrazin-2(1H)-yl)(o-tolyl)methanone]	35	37	–
O=C(CCc1ccccc1)N1CCn2cccc2C1c1cccs1 (stereo not drawn) [Example 76, 3-phenyl-1-(1-(thiophen-2-yl)-3,4-dihydropyrrolo[1,2-a]pyrazin-2(1H)-yl)propan-1-one]	46	36	–
Cc1ccccc1C1c2cccn2CCN1C(=O)c1ccc2c(c1)OCO2 (stereo not drawn) [Example 12, benzo[d][1,3]dioxol-5-yl(1-o-tolyl-3,4-dihydropyrrolo[1,2-a]pyrazin-2(1H)-yl)methanone]	22	34	–
O=C(C1CC1)N1CCn2cccc2C1c1ccccc1F (stereo not drawn) [Example 6, cyclopropyl(1-(2-fluorophenyl)-3,4-dihydropyrrolo[1,2-a]pyrazin-2(1H)-yl)methanone]	13	34	–
Cc1ccccc1C1c2cccn2CCN1C(=O)c1ccccc1F (stereo not drawn) [Example 32, (2-fluorophenyl)(1-o-tolyl-3,4-dihydropyrrolo[1,2-a]pyrazin-2(1H)-yl)methanone]	14	29	–
Cc1ccccc1C(=O)N1CCn2cccc2C1c1cccs1 (stereo not drawn) [Example 57, (1-(thiophen-2-yl)-3,4-dihydropyrrolo[1,2-a]pyrazin-2(1H)-yl)(o-tolyl)methanone]	15	44	–
O=C(C1CC1)N1CCn2cccc2C1c1cccs1 (stereo not drawn) [Example 59, cyclopropyl(1-(thiophen-2-yl)-3,4-dihydropyrrolo[1,2-a]pyrazin-2(1H)-yl)methanone]	10	31	–
O=C(c1ccccc1F)N1CCn2cccc2C1c1ccc(Cl)c(Cl)c1 (stereo not drawn) [Example 63, [1-(3,4-dichloro-phenyl)-3,4-dihydro-1H-pyrrolo[1,2-a]pyrazin-2-yl]-(2-fluoro-phenyl)-methanone]	71	65	–
